Data as given in PubChem BioAssay AID179 (DTP/NCI, 2004).
Calls of active or inactive are those of the source.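 How the source made its calls: active means compounds giving half or more protection of infected cells from virus-caused growth loss, again on retest; inactive means the rest.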

Test system: CEM cells HIV-1 protection, formazan growth assay
Assay: NCI AIDS Antiviral Assay
Conditions: for IC50: measured here: growth of uninfected CEM cells
Procedure, shortened: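 Steps: treat uninfected and HIV-1-infected human CEM cells at five drug levels; quantify growth by soluble formazan; retest any compound reaching 50% protection; classify actives from the retest.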

## COc1cc(C(=O)N2C[C@H](O)C[C@H]2C(=O)O)cc(OC)c1OC
  EC50: > 200 µM
  IC50: > 200 µM

## C[C@H](CCCN1CCOCC1)[C@H]1CC[C@H]2[C@@H]3CC[C@@H]4C[C@H](O)CC[C@]4(C)[C@H]3CC[C@]12C
  EC50: > 50.1 µM
  IC50: 9.12 µM

## CN(C)CC1CCC/C(=C\c2ccccc2)C1=O (centres undefined)
  EC50: > 200 µM
  IC50: 0.708 µM

## C[C@]1(CO)CCC[C@@]2(C)C1CC[C@H]1CC3C[C@]12CC[C@]3(C)O (some centres undefined)
  EC50: > 23.4 µM
  IC50: > 23.4 µM

## O=C1/C(=C/c2ccc(Cl)cc2)CCCc2ccccc21
  EC50: > 200 µM
  IC50: 22.9 µM

## COc1cc2c(cc1OC)C(Cc1cc(Br)c(OC)c(OC)c1)=[N+](C)CC2
  EC50: > 447 µM
  IC50: 33.9 µM

## O=C1Oc2cc3c(c4cccc1c24)OCN(c1ccccc1)C3
  EC50: > 33.1 µM
  IC50: 24.5 µM

## COc1cccc2c1c1ccc3c(c1n2C)C(=O)C=CC3=O
  EC50: > 17.8 µM
  IC50: 7.08 µM

## O=C1C(Cl)=C(Cl)C(=O)N1c1ccc(Cl)c(Cl)c1Cl
  outcome: inactive

## CO/C(N)=C(\C#N)N=Cc1ccc2ccccc2c1
  EC50: > 200 µM
  IC50: 37.2 µM

## COc1ccc(CCNC(=S)/N=C\C(C(=O)c2ccccc2)=C(\O)c2ccccc2)cc1OC
  outcome: inactive

## CCOC(=O)CCC(NC(=O)c1ccc(Oc2nc3ccc(C(F)(F)F)cc3nc2-c2ccccc2)cc1)C(=O)OCC (centres undefined)
  EC50: > 200 µM
  IC50: 195 µM

## COc1ccc(C(C)c2cc3c(cc2OC)OCO3)cc1 (centres undefined)
  EC50: > 66.1 µM
  IC50: 0.427 µM

## Cc1ccc(NC(=O)C2C(=O)N(c3ccc(C)c(C)c3)C(=O)/C2=N\NC(N)=O)cc1C (centres undefined)
  outcome: inactive

## O=c1cnn(C2OC(CO)C(O)C2O)c(=S)[nH]1 (centres undefined)
  EC50: > 2 µM
  IC50: 0.182 µM

## CC1NCCc2c1[nH]c1cc(O)ccc21 (centres undefined)
  EC50: > 1050 µM
  IC50: 158 µM

## Cc1c(C)c2ccc(O)cc2[nH]c1=O
  EC50: > 200 µM
  IC50: 182 µM

## CCOC(=O)CC(=O)CSc1c(-c2ccccc2)c(=O)n(-c2ccccc2)c(=S)n1-c1ccccc1
  EC50: > 200 µM
  IC50: 72.4 µM

## CC1=CCC23C(C1)OC(Br)(C=CC2(C)O)C3(C)C (centres undefined)
  outcome: inactive

## O=C(O)c1c2c(cc3c(=O)c4ccccc4[nH]c13)CCCC2
  EC50: > 617 µM
  IC50: 85.1 µM

## N#Cc1c(N)c(C(=O)Nc2ccc(S(N)(=O)=O)cc2)n2c1CCC2
  EC50: > 200 µM
  IC50: > 200 µM

## Cc1cnc2sn(-c3ccc(Br)cc3)c(=O)c2c1
  EC50: > 200 µM
  IC50: 11.5 µM

## C=C1CCCCCCCCCCC1S(=O)c1ccccc1 (centres undefined)
  EC50: > 200 µM
  IC50: 12 µM

## CS(=O)(=O)C(CC(S(C)(=O)=O)S(C)(=O)=O)S(C)(=O)=O
  EC50: > 20.4 µM
  IC50: > 20.4 µM

## Cc1cccc(C2(Br)C(=O)c3ccccc3C2=O)c1
  EC50: > 200 µM
  IC50: 195 µM

## O=C1C(S(=O)(=O)c2ccccc2)=C(CS(=O)(=O)c2ccccc2)[C@@H](OCc2ccccc2)[C@@H]1OCc1ccccc1
  EC50: > 20 µM
  IC50: 9.55 µM

## CCOc1ccc2c(C)cc(=O)oc2c1
  EC50: > 66.1 µM
  IC50: > 66.1 µM

## COc1ccc(C2=C/C(=C3/C(=O)C=C(C)OC3=O)SS2)cc1
  EC50: > 100 µM
  IC50: > 100 µM

## CNC(=O)c1cc(NC(=O)N(CCC#N)CCN(C(=O)N[C@@H](Cc2ccccc2)C(=O)N[C@@H](CC(C)C)C(=O)NC)c2ccccc2)ccc1OC
  EC50: > 200 µM
  IC50: 32.4 µM

## C=CC(C)(O)CNc1ccccc1 (centres undefined)
  EC50: > 204 µM
  IC50: > 204 µM

## C/C(C=O)=N\Nc1cc(C)c2ccccc2n1
  EC50: > 200 µM
  IC50: 9.55 µM

## O=C(O)CC(NC(=O)/C(=C/c1ccccc1)NC(=O)c1ccccc1)C(=O)O (centres undefined)
  EC50: > 200 µM
  IC50: > 200 µM

## Cc1nn(C)c(N)c1N=O
  EC50: > 200 µM
  IC50: > 200 µM

## O=C1c2c(O)cccc2Cc2cc(CO)cc(O)c21
  EC50: > 200 µM
  IC50: 0.933 µM

## Oc1ccccc1C1SCc2nc3ccccc3n21 (centres undefined)
  EC50: > 26.9 µM
  IC50: > 26.9 µM

## CC1/C(=N/O)CC(c2ccccc2)N(N=O)C1c1ccccc1 (centres undefined)
  EC50: > 200 µM
  IC50: 129 µM

## CC/C=C\C/C=C\C1CC(=O)NCCCNCCCCN1 (centres undefined)
  outcome: inactive

## COc1ccc(NC(=O)CCc2cc(-c3ccc(O)c(OC)c3)nc(NC#N)n2)cc1
  EC50: > 224 µM
  IC50: > 224 µM

## CCCC(CCC(=O)O)(CCC(=O)O)[N+](=O)[O-]
  outcome: inactive

## OCC(O)C(O)C(O)c1nn(-c2ccc(F)cc2)c2nc3cc(Cl)c(Cl)cc3nc12 (centres undefined)
  outcome: inactive

## C=C1C(=O)C23OC2C1CCC(=O)C1(C)CC[C@H](OC(C)=O)C(C)(C)[C@H]1CC3=O (some centres undefined)
  EC50: > 174 µM
  IC50: 2.29 µM

## O=C1CC2(CCCC2)C(=O)N1c1cccc([N+](=O)[O-])c1
  EC50: > 347 µM
  IC50: 275 µM

## N#CC(C#N)=Cc1cccc(Cl)c1
  EC50: > 117 µM
  IC50: 22.4 µM

## Cc1ccc(S[C@@H](C)[C@@](O)(C(N)=O)c2ccccc2)cc1
  EC50: > 200 µM
  IC50: 30.2 µM

## COc1cccc(NC(=S)Nn2c(C)nc3ccccc3c2=O)c1
  EC50: > 105 µM
  IC50: > 105 µM

## Nc1cccc(P(N)(N)=O)c1
  EC50: > 200 µM
  IC50: > 200 µM

## Nc1ccc(SCc2ccc(C(=O)O)cc2[N+](=O)[O-])cc1
  EC50: > 813 µM
  IC50: 339 µM

## COc1ccc(C2=NOC(N)(c3ccc(OC)cc3)C2)cc1 (centres undefined)
  EC50: > 200 µM
  IC50: > 200 µM

## Nc1cc(Cl)c(S(=O)(=O)O)cc1Cl
  EC50: > 200 µM
  IC50: > 200 µM

## Cc1nnc(N)nc1/C=C\c1ccc(Cl)cc1Cl
  EC50: > 200 µM
  IC50: 50.1 µM

## CC1=C\[C@@H](O)CC(=O)Cc2nc(co2)C(=O)N2CCC=C2C(=O)O[C@H](C(C)C)[C@H](C)/C=C/C(=O)NC\C=C\1
  EC50: > 9.77 µM
  IC50: > 9.77 µM

## CC1NOC(=O)C1N=Nc1ccccc1Cl (centres undefined)
  EC50: > 151 µM
  IC50: 70.8 µM

## O=C(OC[C@H]1OCC(=O)[C@@]2(OC(=O)c3ccccc3)[C@@H]1[C@H]1C=C[C@@H]2C1)c1ccccc1
  outcome: inactive

## N#CC1CC12c1ccccc1C(=O)c1ccccc12 (centres undefined)
  EC50: 135 µM
  IC50: 145 µM

## O=c1[nH]c2ccccc2c(=O)n1CCCN1CCN(c2cccc(Cl)c2)CC1
  EC50: > 200 µM
  IC50: 50.1 µM

## CN(C1=NCCO1)c1cccc2c1CCCC2
  EC50: > 200 µM
  IC50: 4.47 µM

## COc1ccc(/C=c2\sc3nc(-c4ccccc4)nn3c2=O)cc1
  EC50: 182 µM
  IC50: 195 µM

## O=C(O)CN1CCSc2ccccc2CN(CC(=O)O)CCSc2ccccc2C1
  EC50: > 562 µM
  IC50: > 562 µM

## CCC(OCc1ccccc1)/C(C)=C/CC(C)C=C(Br)Br (centres undefined)
  EC50: > 933 µM
  IC50: 891 µM

## O=C(O)c1cc2ccccc2c(N=Nc2ccc(S(=O)(=O)Nc3nccs3)cc2)c1O
  EC50: > 200 µM
  IC50: 155 µM

## CN(c1ccc(Cl)cc1)S(=O)(=O)c1ccc([N+](=O)[O-])cc1
  EC50: > 200 µM
  IC50: > 200 µM

## CC(/C=C/c1ccc(N(C)C)cc1)=N\NC(=S)NCC(C)C
  EC50: > 200 µM
  IC50: 29.5 µM

## O=C1CC2(CCc3ccccc32)C(=O)N1CN1CCN(c2ccccn2)CC1 (centres undefined)
  EC50: > 87.1 µM
  IC50: 70.8 µM

## CCOC(=O)c1ccc(N2C(=O)/C(=C\OC)c3ccccc3C2=O)cc1
  outcome: inactive

## COC(CNC(=O)C(C)NC(=O)/C=C/c1ccccc1)OC (centres undefined)
  outcome: inactive

## COC(=O)/C=C\COCC1C2CCC(=O)C21 (centres undefined)
  EC50: > 50.1 µM
  IC50: 28.2 µM

## C(=C\c1nc2ccccc2s1)/c1ccc2c(c1)OCO2
  EC50: > 6.76 µM
  IC50: > 6.76 µM
